The test system of this test is Normal human cartilage cells (HCC). The experiment in a line: Cell growth assessed by DNA content of the cell layer. Type of test: cell-based. The conditions noted are these: 0.1% serum, PEMF 40 microAmps once every 24 hours, measured after 72 hours, L-NAME co-administered. The protocol: Normal human cartilage cells (HCC; CAMBREX®, Walkersville, Md.) were plated in rectangular cell chambers in monolayer. PEMF application was capacitively coupled through a niobium electrode bridge system which allowed a time varying current to flow uniformly through the chambers. A pulse-burst B-type signal as described herein is composed of a 10-msec burst of asymmetric rectangular pulses, 200/28 microseconds in width, repeated at 15 Hz. The PEMF signal was applied for 30 minutes per treatment. Cell growth was assessed by DNA content of the cell layer. Nitric oxide (NO) content of culture media was assessed by the Griess reaction using an assay kit from INVITROGEN INC.® (Carlsbad, Calif.). Results are expressed as micromoles of NO per cell number as assessed by DNA content of the cell layer.

For `COC(=O)[C@@H](N)CCCNC(=N)N[N+](=O)[O-]` [L-NAME, N(G)-nitro-1-arginine methyl ester], the “effect on PEMF-increased cell number (DNA, FIG. 7)” value is reported as “attenuated”.

Source of the values: US9630001B2, “Methods for modulating osteochondral development using bioelectric stimulation” (MedRelief Inc., priority 2005, dated 2017).
